{"source": "paper PMC6768323", "about": "“Adverse Maternal, Fetal, and Postnatal Effects of Hexafluoropropylene Oxide Dimer Acid (GenX) from Oral Gestational Exposure in Sprague-Dawley Rats” (Environmental Health Perspectives, 2019)", "key": {"human GR": {"target": "T1, human GR (Homo sapiens, UniProt P04150)", "T1 construct": "expressed in transfected cells; host or cells: CV-1 cells (ATCC CCL-70), adenoviral transduction", "T1 sequence (P04150 1-777)": "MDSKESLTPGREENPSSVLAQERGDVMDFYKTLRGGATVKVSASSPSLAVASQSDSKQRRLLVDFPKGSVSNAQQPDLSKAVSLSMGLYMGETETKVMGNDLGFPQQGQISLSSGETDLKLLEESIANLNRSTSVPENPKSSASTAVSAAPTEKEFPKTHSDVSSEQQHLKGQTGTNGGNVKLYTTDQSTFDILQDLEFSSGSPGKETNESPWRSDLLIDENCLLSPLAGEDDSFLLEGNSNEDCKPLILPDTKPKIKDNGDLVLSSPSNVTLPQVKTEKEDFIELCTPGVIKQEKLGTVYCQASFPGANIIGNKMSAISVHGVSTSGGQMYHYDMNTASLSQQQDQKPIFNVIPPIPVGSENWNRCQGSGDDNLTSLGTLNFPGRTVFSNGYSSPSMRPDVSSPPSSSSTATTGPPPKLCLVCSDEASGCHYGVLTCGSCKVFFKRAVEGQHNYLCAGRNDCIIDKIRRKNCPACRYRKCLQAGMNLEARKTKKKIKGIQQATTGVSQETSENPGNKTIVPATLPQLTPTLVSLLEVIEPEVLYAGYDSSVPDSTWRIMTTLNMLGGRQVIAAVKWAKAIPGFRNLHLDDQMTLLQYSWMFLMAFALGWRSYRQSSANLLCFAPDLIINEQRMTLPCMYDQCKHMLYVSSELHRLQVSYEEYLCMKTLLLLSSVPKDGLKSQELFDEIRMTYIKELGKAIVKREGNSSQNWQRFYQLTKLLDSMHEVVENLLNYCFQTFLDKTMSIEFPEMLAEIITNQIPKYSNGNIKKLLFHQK", "experiment": "GR transcriptional activation, CV-1 cells", "assay_type": "cell-based", "experimental": "HFPO-DA was assessed for agonism and antagonism of transcriptional activation for estrogen (ER), androgen (AR), and glucocorticoid receptors (GR). Method details for in vitro transactivation assays for ER ([Wilson et al. 2004a]), AR ([Hartig et al. 2002], [2007]), and GR ([Conley et al. 2017]; [Medlock Kakaley et al. 2018]) have been previously reported. Briefly, for ER activity we utilized the stably transfected T47D-KBluc cell line [publicly available via American Type Culture Collection (ATCC); CRL-2865] according to protocols provided by ATCC with the modification of Dulbecco’s Modified Eagle Media (DMEM) as the cell culture media instead of Roswell Park Memorial Institute (RPMI) media. […] All assays were run in 96-well plates and luminescence was detected using a BMG Fluostar Omega luminometer (BMG Labtech) following 24-h exposure. […] Cellular cytotoxicity across the dosing range was determined for CV-1 cells utilizing the 3-(4,5-dimethylthiazol-2-yl)-2,5-diphenyltetrazolium bromide (MTT) dye ([Mosmann 1983]). HFPO-DA was analyzed using n=2–3 biological replicate assay plates (i.e., unique cell passages) with four technical replicates per treatment per plate. […]"}, "[1]": {"tested_on": "pregnant Sprague-Dawley rats", "experiment": "Dose-response analyses (EC5) versus maternal serum HFPO-DA concentration", "assay_type": "in vivo", "experimental": "Dose–response analyses for the in vitro transactivation assay data and the most sensitive in vivo end points and were conducted using four-parameter logistic regression in GraphPad Prism (constraint to bottom=0% , top=100% ). In vitro luminescence data was normalized to background (vehicle control), log10 transformed, and converted to percentage maximum response based on saturating levels of reference agonist. In vivo data were modeled as a function of log10 -transformed internal dose (i.e., dam serum HFPO-DA concentration from GD18), and response data was normalized to control and presented as a percentage. We estimated effect concentrations equivalent to a 5% deviation from control ( EC5 ). Reduction in maternal serum T3 concentration was modeled by ascribing a concentration of one-half of the detection limit (i.e., 0.1 ng/mL; detection limit of 0.2 ng/mL ) for the dose groups that were below the detection limit."}}}
{"smiles": "O=C(O)C(F)(OC(F)(F)C(F)(F)C(F)(F)F)C(F)(F)F", "note": "(stereo not shown) [HFPO-DA, Hexafluoropropylene oxide dimer acid]", "values": [{"measurement": "glucocorticoid receptor agonism", "setting": "human GR; 100 pM to 100 μM", "value": "no androgen or glucocorticoid receptor agonism"}, {"measurement": "glucocorticoid receptor antagonism, reduction in luciferase expression", "setting": "human GR; 100 μM, versus 1 nM Dex", "value": "28±3", "unit": "%"}, {"measurement": "EC5, maternal serum T3", "setting": "[1]; 5% deviation from control, maternal serum HFPO-DA", "value": 3.8, "unit": "µg/mL"}, {"measurement": "estimated maternal oral dose at T3 EC5", "setting": "[1]; linear equation from Figure 5", "value": 8.2, "unit": "mg/kg"}, {"measurement": "EC5, maternal liver Ehhadh expression", "setting": "[1]; maternal serum HFPO-DA", "value": 14.1, "unit": "µg/mL"}, {"measurement": "EC5, maternal liver weight", "setting": "[1]; maternal serum HFPO-DA", "value": 17.6, "unit": "µg/mL"}, {"measurement": "EC5, maternal serum T4", "setting": "[1]; maternal serum HFPO-DA", "value": 17.8, "unit": "µg/mL"}]}
